Experimental data: publication PMC8231556, “Inhibiting Endothelial Cell Function in Normal and Tumor Angiogenesis Using BMP Type I Receptor Macrocyclic Kinase Inhibitors” (Cancers, 2021)

Experiments:
[1] = test system: MDA-MB-231 breast cancer cell-induced angiogenesis; assay: Tumor angiogenesis in zebrafish (MDA-MB-231 xenograft); type: in vivo; conditions: 0.5 µM, 3 days, MDA-MB-231 in perivitelline space
Procedure: Two days post fertilization (dpf), four hundred mCherry-labeled human breast cancer MDA-MB-231 cells were injected into the perivitelline space of Tg (fli:EGFP) zebrafish embryos as previously described. The properly injected zebrafishes were randomly divided into five groups, and each group contained at least 30 embryos. […] The egg water was refreshed daily, and the abnormal embryos were removed. After 3 days, the embryos were fixed in 4% PFA for 2 h at room temperature and stored at 4 °C in PBS. The tumor cell-induced angiogenesis in the perivitelline space was imaged with an Andor Dragonfly 500 spinning disk confocal using 488 nm and 561 nm lasers. At least ten embryos per group were randomly selected and scanned. The experiments were repeated twice with similar results. Tumor angiogenesis was quantified using ImageJ, and the relative vasculature density was calculated according to the following formula: Relative vasculature density (%) = 100% × (Vessel intensity within the perivitelline space)/(tumor cells intensity within the perivitelline space).

KIT = molecular target: T1, KIT (Homo sapiens, UniProt P10721); assay: radiometric kinase profiling (33 PanQinase); type: biochemical; conditions: read-out: Inhibitory effect (%) KIT
T1 construct: purchased ProQinase (33PanQinase Activity Assay)
Procedure: The kinase inhibition profile of the compounds was determined by testing 96 protein kinases’ activity using a radiometric protein kinase assay (33 PanQinase® Activity Assay, Proqinase, Germany). In brief, 10 µL of non-radioactive ATP solution (in H2O), 25 µL of assay buffer/[γ-33 P]-ATP mixture, 5 µL of 0.1 μM the tested compound in 10% DMSO and 10 µL of enzyme/substrate were mixed in 96-well FlashPlatesTM (Perkin Elmer, Boston, MA, USA). The reaction was conducted at 30 °C for 60 min. To stop the reaction, 50 µL of 2% (v/v) H3PO4 was added into the protein kinase reaction cocktails. After which, with 200 µL 0.9% (w/v) NaCl twice, the incorporation of ^33 Pi (counting of “cpm”) was determined with a microplate scintillation counter (Wallac Microbeta, Boston, MA, USA). All protein kinase assays were performed using a BeckmanCoulter Biomek 2000/SL robotic system (Brea, CA, USA). The residual activity (in %) for each compound was normalized to 100% enzyme activity (untreated control) and background (negative control).

[2] = test system: BMP9-induced BRE-Luc activity; assay: BRE-luciferase transcriptional reporter assay, BMP9-stimulated EA.hy926-BRE-Luc cells; type: cell-based, human; conditions: for BMP9-induced BRE-Luc activity (fold): BMP9 1 ng/mL alone 5.0 fold
Excerpt: The BMP responsive element (BRE)-driven transcriptional luciferase reporter, which contains SMAD1/5-SMAD4 responsive elements of the ID1 gene promoter, was used to assess the activation of the BMP/SMAD signaling pathway. A lentiviral vector carrying this reporter construct (pRRL-BRE-Luc) was generated by digesting the MLP-BRE-Luc plasmid with KpnI and SalI and then inserted into the lentivirus vector pRRL-CMV digested with XhoI and KpnI. Lentiviral particles were made using HEK 293 T cells, and EA.hy926 cells were transduced to generate BRE-Luc stably expressing cells, named as EA.hy926-BRE-Luc.
EA.hy926-BRE-Luc cells were seeded at approximately 5 × 10^5 cells/well in a 24-well plate. Cells were serum-starved overnight by incubating with a serum-free medium. After starvation, the cells were pre-incubated with the compounds for 30 min and subsequently stimulated overnight with ligands (or vehicle control). Thereafter, the cells were lysed, and luciferase activity was measured with the firefly luciferase assay System kit (E1501, Promega Corporation, Madison, WI, USA) using a PerkinElmer luminometer. The firefly luciferase activity was normalized to protein content, which was determined using the DC protein assay kit (5000111, Bio-Rad, Hercules, CA, USA).

[3] = test system: BMP9-induced SMAD1/5 phosphorylation; assay: Western blot of BMP9-induced SMAD1/5 phosphorylation in EA.hy926 cells; type: cell-based; conditions: Homo sapiens, EA.hy 926, BMP9 1 ng/mL, 1 h, read-out: IC50 on BMP9-induced pSMAD1/5 response
Procedure: EA.hy926 cells or HUVECs were seeded in 6-well plates and starved in a serum-free medium for 4 h after reaching 80% confluence. The compounds were added 30 min prior to stimulation with the corresponding ligands. EA.hy926 cells were incubated with BMP9 (1 ng/mL), BMP6 (50 ng/mL), TGF-β2 (1 ng/mL), or vehicle control for 1 h. For HUVECs, after 4 h starvation, the cells were pre-treated with or without the indicated compounds for 30 min and subsequently stimulated with VEGF (40 ng/mL) for 10 min. The cells were harvested and lysed in radioimmunoprecipitation assay (RIPA) lysis buffer containing 1× complete protease inhibitor cocktail (11836153001, Roche, Basel, Switzerland). The protein concentration was determined using the DC protein assay kit (5000111, Bio-Rad). After adding loading buffer, the samples were boiled and proteins separated by sodium dodecyl sulfate polyacrylamide gel electrophoresis (SDS-PAGE). Proteins in the gel were transferred to polyvinylidene difluoride (PVDF) membranes (IPVH00010, Merck Millipore, Burlington, MA, USA) and immunoblotted with 1000 times diluted primary antibodies: phospho-SMAD1/5 (9516 S, Cell Signaling Technology, Leiden, The Netherlands), phospho-SMAD2 (pSMAD2, home-made), SMAD1 (6944 S, Cell Signaling Technology), SMAD2 (3103 S, Cell Signaling Technology), phospho-extracellular signal-regulated kinase/mitogen-activated protein kinase (pERK/MAPK, 4370, Cell Signaling Technology), mitogen-activated protein kinase/ERK1/2 (ERK1/2/MAPK, 9102 S, Cell Signaling Techonol), VEGFR (2479, Cell Signaling), pVEGFR (2478, Cell Signaling Technology), α/β-Tubulin (2148, Cell Signaling Technology), glyceraldehyde 3-phosphate dehydrogenase (GAPDH, MAB374, Merck Millipore). Clarity™ enhanced chemiluminescence (ECL) reagent (1705060, Bio-Rad) was used to visualize secondary antibodies conjugated to horseradish peroxidase (HRP). GAPDH or Tubulin was used as protein loading controls. […] The protein bands were quantified using ImageJ (National Institutes of Health, Bethesda, MD, USA).

T1 sequence (P10721 26-976): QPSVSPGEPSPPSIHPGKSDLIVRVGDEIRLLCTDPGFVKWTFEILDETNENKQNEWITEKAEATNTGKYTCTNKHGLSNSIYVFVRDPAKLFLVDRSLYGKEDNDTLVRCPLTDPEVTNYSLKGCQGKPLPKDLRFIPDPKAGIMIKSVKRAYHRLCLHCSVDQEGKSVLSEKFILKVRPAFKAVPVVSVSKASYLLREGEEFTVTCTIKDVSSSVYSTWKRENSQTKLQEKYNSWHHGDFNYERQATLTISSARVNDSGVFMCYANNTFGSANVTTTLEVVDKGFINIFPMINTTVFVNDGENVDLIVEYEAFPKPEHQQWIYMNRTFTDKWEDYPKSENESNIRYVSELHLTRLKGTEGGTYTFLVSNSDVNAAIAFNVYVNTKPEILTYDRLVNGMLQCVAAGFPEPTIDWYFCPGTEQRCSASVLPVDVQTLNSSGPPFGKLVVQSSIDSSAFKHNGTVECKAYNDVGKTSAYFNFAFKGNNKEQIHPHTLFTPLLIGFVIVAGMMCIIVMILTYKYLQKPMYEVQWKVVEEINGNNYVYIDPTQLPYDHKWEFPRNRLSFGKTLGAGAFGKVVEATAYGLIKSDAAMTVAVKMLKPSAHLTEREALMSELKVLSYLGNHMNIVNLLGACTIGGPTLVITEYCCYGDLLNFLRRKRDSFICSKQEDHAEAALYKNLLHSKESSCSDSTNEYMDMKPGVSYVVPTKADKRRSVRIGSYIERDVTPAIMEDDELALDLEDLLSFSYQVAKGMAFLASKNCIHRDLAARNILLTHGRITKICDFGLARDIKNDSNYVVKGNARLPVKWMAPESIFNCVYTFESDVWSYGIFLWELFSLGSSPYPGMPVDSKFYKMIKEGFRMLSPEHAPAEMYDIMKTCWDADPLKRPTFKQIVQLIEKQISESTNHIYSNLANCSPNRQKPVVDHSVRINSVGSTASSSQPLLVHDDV

Row | Structure (SMILES) | effect on cancer cell-induced angiogenesis (relative vasculature density) [1] | inhibition at 0.1 µM (KIT) [%] | BMP9-induced BRE-Luc activity (fold) ([2]; 0.5 μM compound) | BMP9-induced BRE-Luc activity (fold) ([2]; 1 μM compound) | IC50 [3] [nM] | BMP9-induced BRE-Luc activity (fold) ([2]; 0.1 μM compound) | effect on BMP9-induced BRE activity ([2]; 1 μM compound) | effect on BMP9-induced BRE activity ([2]; 0.5 μM compound)
1 | CN1CCC(=O)NCCNc2ccn3ncc(c3n2)-c2cccc(c2)C1 [OD29] | significantly inhibited | 7.49 | 3.1 | 0.9 | 430 | – | – | –
2 | CN1CCc2cccc(c2)Nc2nccc(n2)N2CCCc3cc(ccc32)C1 [OD16] | significantly inhibited | 33 | – | – | 80 | 2.1 | nearly completely inhibited | –
3 | c1ccc2c(-c3cnn4cc(-c5ccc(N6CCNCC6)cc5)cnc34)ccnc2c1 [LDN-193189, reference compound] | – | -20.3 | – | – | 110 | – | nearly decreased to basal levels | significantly inhibited
4 | CNC(=O)c1ccccc1Sc1ccc2c(/C=C/c3ccccn3)n[nH]c2c1 [Axitinib, reference compound] | markedly inhibited | – | – | – | – | – | – | –
